According to patent US10039753B2, “Imidazo[4,5-c]quinoline and imidazo[4,5-c][1,5]naphthyridine derivatives as LRRK2 inhibitors” (Pfizer Inc., priority 2015, dated 2018):
Structures can show the parent of a compound that is named as a salt.

Experiments:
[1] = target: T1, GST-tagged truncated LRRK2 (Homo sapiens, UniProt Q5S007); assay: LRRK2 Assay, Format 2 (Lantha Screen), WT; type: biochemical; conditions: geometric mean of 2-4 determinations unless otherwise indicated (a: >=5; b: single determination)
T1 construct: GST-tagged truncated LRRK2 from Invitrogen (Cat # PV4874); GST; purchased Invitrogen PV4874
T1 sequence (Q5S007 970-2527 limits assumed): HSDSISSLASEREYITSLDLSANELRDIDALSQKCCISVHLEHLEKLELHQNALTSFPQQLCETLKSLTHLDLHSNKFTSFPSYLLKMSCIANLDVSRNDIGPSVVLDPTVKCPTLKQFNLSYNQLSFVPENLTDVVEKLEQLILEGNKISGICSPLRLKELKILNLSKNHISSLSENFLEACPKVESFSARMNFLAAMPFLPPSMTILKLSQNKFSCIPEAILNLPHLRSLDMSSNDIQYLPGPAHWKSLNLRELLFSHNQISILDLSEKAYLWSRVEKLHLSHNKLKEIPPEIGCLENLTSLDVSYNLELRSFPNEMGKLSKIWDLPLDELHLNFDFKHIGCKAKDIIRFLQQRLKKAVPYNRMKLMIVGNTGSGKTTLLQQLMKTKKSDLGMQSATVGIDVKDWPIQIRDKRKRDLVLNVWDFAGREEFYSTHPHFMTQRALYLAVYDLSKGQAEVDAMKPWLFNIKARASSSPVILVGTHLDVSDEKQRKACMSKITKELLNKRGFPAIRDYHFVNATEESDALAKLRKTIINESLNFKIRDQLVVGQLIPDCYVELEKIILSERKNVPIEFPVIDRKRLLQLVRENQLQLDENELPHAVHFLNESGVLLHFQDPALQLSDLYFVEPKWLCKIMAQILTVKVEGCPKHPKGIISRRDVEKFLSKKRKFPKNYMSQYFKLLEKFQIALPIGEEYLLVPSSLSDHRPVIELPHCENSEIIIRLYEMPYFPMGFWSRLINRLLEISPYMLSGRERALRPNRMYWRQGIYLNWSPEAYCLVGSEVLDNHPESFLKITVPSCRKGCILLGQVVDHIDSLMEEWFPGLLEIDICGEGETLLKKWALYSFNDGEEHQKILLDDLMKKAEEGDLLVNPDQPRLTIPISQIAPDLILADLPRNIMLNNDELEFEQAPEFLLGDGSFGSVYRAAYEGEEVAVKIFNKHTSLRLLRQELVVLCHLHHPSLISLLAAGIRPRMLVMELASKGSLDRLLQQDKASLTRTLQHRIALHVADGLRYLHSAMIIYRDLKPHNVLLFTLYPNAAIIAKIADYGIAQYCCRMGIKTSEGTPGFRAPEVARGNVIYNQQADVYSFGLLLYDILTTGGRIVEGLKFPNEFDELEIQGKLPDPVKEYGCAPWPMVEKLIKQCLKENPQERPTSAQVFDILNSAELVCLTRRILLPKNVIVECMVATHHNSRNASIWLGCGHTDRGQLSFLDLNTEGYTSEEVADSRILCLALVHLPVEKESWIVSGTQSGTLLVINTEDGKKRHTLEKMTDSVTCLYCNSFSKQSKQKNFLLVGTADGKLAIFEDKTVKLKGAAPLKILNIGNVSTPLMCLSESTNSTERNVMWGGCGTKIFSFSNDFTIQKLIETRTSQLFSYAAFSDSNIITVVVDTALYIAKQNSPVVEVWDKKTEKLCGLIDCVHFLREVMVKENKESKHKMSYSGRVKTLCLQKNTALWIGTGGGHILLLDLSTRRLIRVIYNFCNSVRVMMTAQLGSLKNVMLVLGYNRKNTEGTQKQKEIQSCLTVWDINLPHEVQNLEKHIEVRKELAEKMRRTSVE
Procedure: (§1) LRRK2 kinase activity was measured using Lantha Screen technology from Invitrogen. GST-tagged truncated LRRK2 from Invitrogen (Cat # PV4874) was incubated with a fluorescein-labeled peptide substrate based upon ezrin/radixin/moesin (ERM), also known as LRRKtide (Invitrogen cat # PR8976A), in the presence of a dose response of compound. Upon completion, the assay was stopped and detected with a terbium labeled anti-phospho-ERM antibody (Invitrogen, cat # PR8975A). […] Using Echo acoustic dispensing, 60 nL of compound was transferred to a low volume Corning 384-well assay plate. 3 μL of a working solution of substrate (200 nM LRRKtide, […]) prepared in assay buffer (50 mM HEPES, pH 7.5, 3 mM MgCl2, with 2 mM DTT and 0.01% Brij35 added fresh) was added to the 60 nL compound assay plate. The kinase reaction was started with […] of a working solution of LRRK2 enzyme at a concentration of […]. The final reaction concentrations were 100 nM LRRKtide, […], […] LRRK2 enzyme and a compound dose response with a top dose of 3 mM. The reaction was allowed to progress at room temperature for 30 minutes and then stopped with the addition of […] of detection buffer (20 mM Tris pH 7.6, 0.01% NP-40, 6 mM EDTA with 2 nM terbium labeled anti-phospho-ERM). After an incubation of 1 hour at room temperature, the plate was read on an Envision with an excitation wavelength of 340 nm and a reading emission at both 520 nm and 495 nm. The ratio of the 520 nm and 495 nm emission was used to analyze the data. Inhibition of mutant G2019S LRRK2 (Invitrogen cat # PV4881) was measured in the exact same method. All final concentrations of substrate ATP and enzyme were the same.

mutant G2019S LRRK2 = mutant G2019S LRRK2 (Homo sapiens, UniProt Q5S007, G2019S); assay: LRRK2 Assay, Format 2 (Lantha Screen), G2019S mutant; type: biochemical; set-up: purchased Invitrogen PV4881; conditions: geometric mean of 2-4 determinations unless otherwise indicated (a: >=5; b: single determination); read-out: LRRK2, Format 2 G2019S IC50
mutant G2019S LRRK2, sequence (Q5S007 970-2527 G2019S limits assumed): as the sequence (Q5S007 970-2527 limits assumed) above, with G1050S counted along it
Procedure: as §1

Row | Structure (SMILES) | IC50 [1] [µM] | IC50 (mutant G2019S LRRK2) [µM]
1 | Cc1cc(Cc2nc3cnc4ccc(C#N)cc4c3n2[C@H]2CC[C@](C)(O)CC2)no1 [Example 247, 1-(trans-4-hydroxy-4-methylcyclohexyl)-2-[(5-methyl-1,2-oxazol-3-yl)methyl]-1H-imidazo[4,5-c]quinoline-8-carbonitrile, formate salt] | 0.0851 | 0.0595
2 | Cc1cc(Cc2nc3cnc4ccc(C#N)cc4c3n2[C@H]2CC[C@H](O)CC2)no1 [Example 240, 1-(trans-4-hydroxycyclohexyl)-2-[(5-methyl-1,2-oxazol-3-yl)methyl]-1H-imidazo[4,5-c]quinoline-8-carbonitrile, formate salt] | 0.0518 | 0.0357
3 | Cc1ccn(Cc2nc3cnc4ccc(C#N)cc4c3n2[C@@H]2CCO[C@H](C)C2)n1 [Example 233, 2-[(3-methyl-1H-pyrazol-1-yl)methyl]-1-[(2R,4R)-2-methyltetrahydro-2H-pyran-4-yl]-1H-imidazo[4,5-c]quinoline-8-carbonitrile, formate salt] | 0.0143 | 0.0119
4 | Cc1cn(Cc2nc3cnc4ccc(C#N)cc4c3n2C2CCC(F)C2)nn1 (single isomer, unassigned; ent-1) [Example C73, 1-(cis-3-fluorocyclopentyl)-2-[(4-methyl-1H-1,2,3-triazol-1-yl)methyl]-1H-imidazo[4,5-c]quinoline-8-carbonitrile, ENT-1] | 0.0204 | 0.0261
5 | Cc1cnn(Cc2nc3cnc4ccc(Cl)cc4c3n2[C@@H]2CCO[C@H](C)C2)n1 [Example 103, 8-Chloro-1-[(2R,4R)-2-methyltetrahydro-2H-pyran-4-yl]-2-[(4-methyl-2H-1,2,3-triazol-2-yl)methyl]-1H-imidazo[4,5-c]quinoline] | 0.0112 | 0.0106
6 | Cc1cc(Cc2nc3cnc4ccc(C#N)cc4c3n2CC(C)(F)F)no1 [Example 248, 1-(2,2-difluoropropyl)-2-[(5-methyl-1,2-oxazol-3-yl)methyl]-1H-imidazo[4,5-c]quinoline-8-carbonitrile] | 0.015 | 0.0177
7 | CO[C@H]1C[C@@H](n2c(Cn3cc(C)nn3)nc3cnc4ccc(Cl)cc4c32)C1 [Example 183, 8-chloro-1-[(1s,3s)-3-methoxycyclobutyl]-2-[(4-methyl-1H-1,2,3-triazol-1-yl)methyl]-1H-imidazo[4,5-c]quinoline] | 0.0338 | 0.0308
8 | Cc1cnc(Cc2nc3cnc4ccc(C#N)cc4c3n2C2CCC(F)C2)cn1 (single isomer, unassigned; ent-2) [Example C89, 1-(cis-3-fluorocyclopentyl)-2-[(5-methylpyrazin-2-yl)methyl]-1H-imidazo[4,5-c]quinoline-8-carbonitrile, ENT-2] | 0.0188 | 0.0205
9 | Cc1cc(Cc2nc3cnc4ccc(C#N)cc4c3n2C2CCCCC2(F)F)no1 (single isomer, unassigned; ent-2) [Example C94, 1-(2,2-difluorocyclohexyl)-2-[(5-methyl-1,2-oxazol-3-yl)methyl]-1H-imidazo[4,5-c]quinoline-8-carbonitrile, ENT-2] | 0.0214 | 0.0305

More lines, now with the values ahead:

Row | IC50 [1] [µM] | IC50 (mutant G2019S LRRK2) [µM] | Structure (SMILES)
10 | 0.00749 | 0.0108 | COCc1cn(Cc2nc3cnc4ccc(C#N)cc4c3n2[C@@H]2CC[C@H](F)C2)nn1 (single isomer, unassigned; ent-1) [Example 132, 1-(cis-3-fluorocyclopentyl)-2-{[4-(methoxymethyl)-1H-1,2,3-triazol-1-yl]methyl}-1H-imidazo[4,5-c]quinoline-8-carbonitrile, ENT-1]
11 | 0.00747 | 0.0113 | N#Cc1ccc2ncc3nc(Cn4cc(C(F)(F)F)cn4)n([C@@H]4CC[C@H](F)C4)c3c2c1 (single isomer, unassigned; ent-1) [Example 201, 1-(cis-3-fluorocyclopentyl)-2-{[4-(trifluoromethyl)-1H-pyrazol-1-yl]methyl}-1H-imidazo[4,5-c]quinoline-8-carbonitrile, ENT-1]
12 | 0.00639 | 0.00694 | C[C@@H]1C[C@H](n2c(Cn3nccn3)nc3cnc4ccc(Cl)cc4c32)CCO1 [Example 161, 8-chloro-1-[(2R,4R)-2-methyltetrahydro-2H-pyran-4-yl]-2-(2H-1,2,3-triazol-2-ylmethyl)-1H-imidazo[4,5-c]quinoline, formate salt]
13 | 0.00711 | 0.00563 | C[C@@H]1C[C@H](n2c(Cc3cccnn3)nc3cnc4ccc(Cl)cc4c32)CCO1 [Example 142, 8-chloro-1-[(2R,4R)-2-methyltetrahydro-2H-pyran-4-yl]-2-(pyridazin-3-ylmethyl)-1H-imidazo[4,5-c]quinoline]
14 | 0.0043 | 0.0037 | C[C@@H]1C[C@H](n2c(Cc3coc(C4CC4)n3)nc3cnc4ccc(C#N)cc4c32)CCO1 [Example 122, 2-[(2-cyclopropyl-1,3-oxazol-4-yl)methyl]-1-[(2R,4R)-2-methyltetrahydro-2H-pyran-4-yl]-1H-imidazo[4,5-c]quinoline-8-carbonitrile, formate salt]
15 | 0.00207 | 0.00138 | Cc1cnc(Cc2nc3cnc4ccc(C(F)(F)F)cc4c3n2[C@@H]2CCO[C@H](C)C2)cn1 [Example 141, 2-[(5-methylpyrazin-2-yl)methyl]-1-[(2R,4R)-2-methyltetrahydro-2H-pyran-4-yl]-8-(trifluoromethyl)-1H-imidazo[4,5-c]quinoline]
16 | 0.013 | 0.0119 | C[C@@H]1C[C@H](n2c(C(F)(F)c3ccccn3)nc3cnc4ccc(C#N)cc4c32)CCO1 [Example 236, 2-[difluoro(pyridin-2-yl)methyl]-1-[(2R,4R)-2-methyltetrahydro-2H-pyran-4-yl]-1H-imidazo[4,5-c]quinoline-8-carbonitrile, formate salt]
17 | 0.0124 | 0.0143 | Cc1cc(Cc2nc3cnc4ccc(F)cc4c3n2[C@@H]2CCO[C@H](C)C2)no1 [Example 200, 8-fluoro-2-[(5-methyl-1,2-oxazol-3-yl)methyl]-1-[(2R,4R)-2-methyltetrahydro-2H-pyran-4-yl]-1H-imidazo[4,5-c]quinoline]
18 | 0.013 | 0.0127 | CC1(C)CC(n2c(Cc3cc(C(F)(F)F)on3)nc3cnc4ccc(C#N)cc4c32)CCO1 (single isomer, unassigned; ent-1) [Example 176, 1-(2,2-dimethyltetrahydro-2H-pyran-4-yl)-2-{[5-(trifluoromethyl)-1,2-oxazol-3-yl]methyl}-1H-imidazo[4,5-c]quinoline-8-carbonitrile, ENT-1]
19 | 0.00319 | 0.00289 | Cc1cc(Cc2nc3cnc4ccc(Cl)cc4c3n2[C@@H]2CCO[C@H](CF)C2)no1 [Example 221, 8-chloro-1-[(2S,4R)-2-(fluoromethyl)tetrahydro-2H-pyran-4-yl]-2-[(5-methyl-1,2-oxazol-3-yl)methyl]-1H-imidazo[4,5-c]quinoline]
20 | 0.00969 | 0.00945 | C[C@@H]1C[C@H](n2c(Cc3ccccn3)nc3cnc4ccc(C#N)cc4c32)CCO1 [Example 223, 1-[(2R,4R)-2-methyltetrahydro-2H-pyran-4-yl]-2-(pyridin-2-ylmethyl)-1H-imidazo[4,5-c]quinoline-8-carbonitrile]
21 | 0.00652 | 0.00609 | Cc1cnc(Cc2nc3cnc4ccc(C#N)cc4c3n2[C@@H]2CCO[C@H](C)C2)s1 [Example 205, 1-[(2R,4R)-2-methyltetrahydro-2H-pyran-4-yl]-2-[(5-methyl-1,3-thiazol-2-yl)methyl]-1H-imidazo[4,5-c]quinoline-8-carbonitrile]
